Values quoted from earlier work as cited in patent US20240100019A1, “COMPOSITIONS COMPRISING A THERMOREVERSIBLE HYDROGEL, AND HAVING AN EXTENDED IN-USE PERIOD” (UroGen Pharma Ltd., priority 2022, published 2024).
Like-named read-outs stand apart in the source and are kept apart here.

Legend:
[1] = room temperature; pH 4.5, 5.5, 6.0 and 7.0 solutions

## CO[C@@]12[C@H](COC(N)=O)C3=C(C(=O)C(C)=C(N)C3=O)N1C[C@@H]1N[C@@H]12 [mitomycin C]
0.2 mg/ml in 0.9% sodium chloride solution
  time for which MMC was stable (relative concentrations systematically over 90% of the initial concentrations): 10 h
After 96 h, these solutions
  relative MMC concentration as compared to initial concentration: below 80%
In water for injections at a concentration of 1 mg/mL
  time for which MMC was stable (relative concentrations systematically over 90% of the initial concentrations): 8 h
Reconstituted and diluted solutions
  degradation products observed: below 3%
[1]
  time at which MMC was unstable (less than 90% of the initial value): < 24 h
